Like-named read-outs stand apart in the source and are kept apart here.
How the values were obtained:
[1] = target: T1, Mushroom tyrosinase (EC 1.14.18.1) (Agaricus bisporus, UniProt C7FF04); assay: Tyrosinase inhibitory assay (colorimetric, diphenolase activity, L-Dopa); assay type: biochemical; conditions: for IC50: L-Dopa as substrate, means ± RSD of 3 independent experiments
T1 construct: purchased Sigma Chemical Co
Protocol: Mushroom tyrosinase (EC 1.14.18.1) (Sigma Chemical Co.) was assayed using L-Dopa as the substrate as reported in our previous studies with some modifications[30]–[32]. The enzyme diphenolase activity was monitored spectrophotometrically by observing dopachrome formation at 490 nm. All the test samples were first dissolved in DMSO at 10 mM and diluted to the required concentrations. Initially, in a 96-well microplate, 10 µl of test samples were added to 160 µl of 50 mM phosphate buffer (pH = 6.8) and then 10 µl tyrosinase (500 U mL^−1) was added. After the mixture was pre-incubated at 28 °C for 20 min, 20 µl of L-Dopa solution (7 mM) was added to the mixture. After 10 min incubation absorbance of samples was measured. DMSO without test compounds was used as the control, and kojic acid was used as a positive control. Each assay was conducted as three separate replicates. The inhibitory activity of the tested compounds was expressed as the concentration that inhibited 50% of the enzyme activity (IC50). […]

[2] = MTT assay for cell viability, HEK 293; assay type: cell-based; conditions: human, HEK 293 cells, 48 h, MTT, mean ± S.E.M.; for viability at 48 h, 16 µM: HEK 293, 16 µM; for viability at 48 h, 32 µM: HEK 293, 32 µM; for viability at 48 h, 64 µM: HEK 293, 64 µM
Protocol: (§1) The cytotoxic activity of all derivatives against the HEK 293 cell line and 10g against A375 (at a density of 5 × 10^3 cells/ml) using 3-(4,5-dimethylthiazol-2-yl)-2,5- diphenyltetrazolium bromide (MTT) assay were performed. Cells were grown at 37 °C in the presence of CO2 5% in DMEM (Gibco BRL, Grand Island, NY, USA), 10% fetal bovine serum (FBS, Gibco BRL), and penicillin/streptomycin (100 IU/mL and 100 µg/mL, respectively). Next cells were seeded in a 96-well plate and incubated at 37 ^∘C with derivatives at different concentrations for 48 h. Following the treatment, cells were incubated with MTT (0.5 mg/ml) at 37 ^∘C for 3 h. The MTT-containing medium was then removed, and 100 μl of DMSO was added to each well, mixed thoroughly with a 10 min shake to dissolve formazan crystals. The absorbance of each well was measured at 540 nm[33].

HEK 293 cell line = assay: MTT assay for cell viability, HEK 293; assay type: cell-based; conditions: for Cell viability (%): HEK 293, 32 µM, 48 h, MTT, mean ± S.E.M., 32 µM
Protocol: as §1

mushroom tyrosinase = conditions: cited from earlier work

T1 sequence (C7FF04 1-392 limits assumed): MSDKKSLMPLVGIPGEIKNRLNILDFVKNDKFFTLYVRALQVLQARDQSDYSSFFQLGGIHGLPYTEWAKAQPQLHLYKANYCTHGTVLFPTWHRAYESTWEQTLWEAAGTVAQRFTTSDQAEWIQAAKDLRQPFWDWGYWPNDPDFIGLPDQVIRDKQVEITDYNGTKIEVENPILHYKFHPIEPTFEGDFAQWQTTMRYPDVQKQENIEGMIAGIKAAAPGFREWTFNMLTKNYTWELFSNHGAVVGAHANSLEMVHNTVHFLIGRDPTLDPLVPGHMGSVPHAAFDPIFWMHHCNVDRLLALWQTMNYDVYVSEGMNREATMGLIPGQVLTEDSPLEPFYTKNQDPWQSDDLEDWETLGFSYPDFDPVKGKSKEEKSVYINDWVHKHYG

| melting point [°C] | IC50 [1] [µM] | Structure (SMILES) | viability at 48 h, 16 µM [2] [%] | viability at 48 h, 32 µM [2] [%] | viability at 48 h, 64 µM [2] [%] | Cell viability (%) (HEK 293 cell line) | fold improvement in the potency compared to 10a ([1]; ratio of tyrosinase IC50 values) | IC50 (HEK 293 cell line; Homo sapiens, HEK293, HEK 293, MTT, read-out: IC50 (positive control)) [µM] | IC50 (mushroom tyrosinase; L-Dopa as substrate) [µM] | IC50 (mushroom tyrosinase; L-tyrosine as substrate) [µM] | IC50 (mushroom tyrosinase; tyrosinase) [µM] |
| --- | --- | --- | --- | --- | --- | --- | --- | --- | --- | --- | --- |
| 180 to 182 | 155 | NC(=S)N/N=C/c1cc2ccccc2nc1SCC(=O)Nc1ccccc1 [Compound 10a, (E)-2-((3-((2-carbamothioylhydrazineylidene)methyl)quinolin-2-yl)thio)-N-phenylacetamide] | 90.19 ± 0.89 | 72.2 ± 2.13 | 65.8 ± 1.99 | – | – | – | – | – | – |
| 180 to 185 | ≥ 200 | Cc1ccc(NC(=O)CSc2nc3ccccc3cc2/C=N/NC(N)=S)cc1 [Compound 10b, (E)-2-((3-((2-carbamothioylhydrazono)methyl)quinolin-2-yl)thio)-N-(p-tolyl)acetamide] | 96.2 ± 2.58 | 81.5 ± 2.91 | – | – | – | – | – | – | – |
| 178 to 180 | 85.3 | CCc1ccc(NC(=O)CSc2nc3ccccc3cc2/C=N/NC(N)=S)cc1 [Compound 10c, (E)-2-((3-((2-carbamothioylhydrazono)methyl)quinolin-2-yl)thio)-N-(4-ethylphenyl)acetamide] | 82.55 ± 0.5 | 69.3 ± 1.81 | 58.3 ± 1.03 | – | – | – | – | – | – |
| 185 to 187 | 101 | Cc1cccc(NC(=O)CSc2nc3ccccc3cc2/C=N/NC(N)=S)c1C [Compound 10d, (E)-2-((3-((2-carbamothioylhydrazono)methyl)quinolin-2-yl)thio)-N-(2,3-dimethylphenyl)acetamide] | 87.52 ± 0.65 | 79.12 ± 0.62 | 71.4 ± 2.97 | – | – | – | – | – | – |
| 191 to 193 | 47.4 | COc1ccc(NC(=O)CSc2nc3ccccc3cc2/C=N/NC(N)=S)cc1 [Compound 10e, (E)-2-((3-((2-carbamothioylhydrazineylidene)methyl)quinolin-2-yl)thio)-N-(4-methoxyphenyl)acetamide] | 85.6 ± 1.08 | 71.2 ± 3.86 | 62 ± 4.15 | – | – | – | – | – | – |
| 180 to 182 | 39.8 | NC(=S)N/N=C/c1cc2ccccc2nc1SCC(=O)Nc1ccc([N+](=O)[O-])cc1 [Compound 10f, (E)-2-((3-((2-carbamothioylhydrazineylidene)methyl)quinolin-2-yl)thio)-N-(4-nitrophenyl)acetamide] | 97.67 ± 0.55 | > 85 | 80 ± 2.05 | 88.12 ± 4.05 | – | – | – | – | – |
| 188 to 190 | 169 | NC(=S)N/N=C/c1cc2ccccc2nc1SCC(=O)Nc1ccc(Cl)cc1Cl [Compound 10h, (E)-2-((3-((2-carbamothioylhydrazono)methyl)quinolin-2-yl)thio)-N-(2,4-dichlorophenyl)acetamide] | 96.9 ± 1.59 | 78.7 ± 2.19 | 67.9 ± 3.21 | – | – | – | – | – | – |
| – | ≥ 200 | NC(=S)N/N=C/c1cc2ccccc2nc1SCC(=O)Nc1ccccc1Br [Compound 10j, (E)-N-(2-bromophenyl)-2-((3-((2-carbamothioylhydrazono)methyl)quinolin-2-yl)thio)acetamide] | 91.2 ± 4.35 | > 85 | 79.9 ± 3.16 | 88.65 ± 2.31 | – | – | – | – | – |
| 180 to 182 | 78.5 | Cc1ccc(CNC(=O)CSc2nc3ccccc3cc2/C=N/NC(N)=S)cc1 [Compound 10l, (E)-2-((3-((2-carbamothioylhydrazineylidene)methyl)quinolin-2-yl)thio)-N-(4-methylbenzyl)acetamide] | 75.1 ± 1.99 | 62.6 ± 1.58 | 50 ± 0.88 | – | – | – | – | – | – |
| 186 to 188 | 53.3 | NC(=S)N/N=C/c1cc2ccccc2nc1SCC(=O)NCc1ccc(F)cc1 [Compound 10m, (E)-2-((3-((2-carbamothioylhydrazono)methyl)quinolin-2-yl)thio)-N-(4-fluorobenzyl)acetamide] | 95.5 ± 2.97 | > 85 | 71.2 ± 5.42 | 86.44 ± 1.17 | – | – | – | – | – |
| – | – | COc1cccc2c1C(=O)c1c(O)c3c(c(O)c1C2=O)C[C@@](O)(C(=O)CO)C[C@@H]3O[C@H]1C[C@H](N)[C@H](O)[C@H](C)O1 [Doxorubicin, reference compound] | – | – | – | – | – | 1.3 | – | – | – |
| – | – | NC(=S)N/N=C/c1ccc(OCc2cn(CC(=O)NCc3ccccc3)nn2)cc1 [G] | – | – | – | – | – | – | 0.17 | 0.11 | – |
| – | – | OC[C@H]1O[C@@H](Oc2ccc(O)cc2)[C@H](O)[C@@H](O)[C@@H]1O [arbutin] | – | – | – | – | – | – | – | – | 180 |

| Structure (SMILES) | melting point [°C] | IC50 [1] [µM] | viability at 48 h, 16 µM [2] [%] | viability at 48 h, 32 µM [2] [%] | viability at 48 h, 64 µM [2] [%] | Cell viability (%) (HEK 293 cell line) | fold improvement in the potency compared to 10a ([1]; ratio of tyrosinase IC50 values) | IC50 (HEK 293 cell line; Homo sapiens, HEK293, HEK 293, MTT, read-out: IC50 (positive control)) [µM] | IC50 (mushroom tyrosinase; L-Dopa as substrate) [µM] | IC50 (mushroom tyrosinase; L-tyrosine as substrate) [µM] | IC50 (mushroom tyrosinase; tyrosinase) [µM] |
| --- | --- | --- | --- | --- | --- | --- | --- | --- | --- | --- | --- |
| NC(=S)N/N=C/c1cc2ccccc2nc1SCC(=O)NCc1ccccc1 [Compound 10k, (E)-N-benzyl-2-((3-((2-carbamothioylhydrazono)methyl)quinolin-2-yl)thio)acetamide] | 183 to 185 | 62 | 77.3 ± 2.55 | 65.4 ± 3.49 | 51.1 ± 1.06 | – | around 2.5 fold | – | – | – | – |

From publication PMC9925432, “Thioquinoline derivatives conjugated to thiosemicarbazide as potent tyrosinase inhibitors with anti-melanogenesis properties” (Scientific Reports, 2023)
